From patent US11021441B2, “High solubility thioether quinones” (Wisconsin Alumni Research Foundation, priority 2017, dated 2021)

Assay: Redox couple / cyclic voltammetry in aqueous 1 M H2SO4
Type: physicochemical
Method: More preferably, a solution of mercaptoethanesulfonate is allowed to react with a suspension of benzoquinone in water (Scheme 16). 0.655 g of sodium mercaptoethanesulfonate in 10 ml of water with 60 microliters of acetic acid was treated with 0.438 g of benzoquinone and allowed to stir at room temperature for 45 minutes. The resulting mixture was filtered and the filtrate was extracted with three 5 ml portions of ethyl acetate. The aqueous phase was then diluted with 30 ml of ethanol and heated to clarify it. On cooling, crystals formed that gave ^1H and ^13C NMR spectra in D2O in accord with tetra-thioethylsulfonato hydroquinone, 52 (FIGS. 5A and 5B).
To 3.956 g of sodium 3-mercaptopropanesulfonate dispersed in 50 mL of nitrogen-purged N-methyl pyrrolidinone were added 10.5 mL of 2 M aqueous NaOH. Once mixed, 2.766 g of 1,8-dichloroanthraquinone were added (Scheme 28). The suspension was heated under nitrogen to 90° C. for six days then allowed to cool. 50 mL of water containing 1 mL of acetic acid was added to the cooled solution, which was further diluted with 25 mL water. The solution was extracted with four 50 mL portions of methylene chloride, and the aqueous phase was evaporated. The residue was dissolved with 35 mL of water and 60 mL of methanol was added. The mixture was heated until clear, and left to slowly cool. […]

reversible redox couple (aqueous 1 M H2SO4) [V vs. NHE] | Structure (SMILES) | reduction potential (cyclic voltammetry in 1 M H2SO4)
0.63 | O=S(=O)([O-])CCSc1c(O)c(SCCS(=O)(=O)[O-])c(SCCS(=O)(=O)[O-])c(O)c1SCCS(=O)(=O)[O-].[Na+].[Na+].[Na+].[Na+] [Compound 52, 2,3,5,6-tetrakis(ethylsulfanyl-2′-sulfonate)-1,4-hydroquinone tetrasodium salt] | 
 | O=C1c2cccc(SCCCS(=O)(=O)[O-])c2C(=O)c2c(SCCCS(=O)(=O)[O-])cccc21.[Na+].[Na+] [Compound 109] | approximately 85 mV vs. NHE
